Consider 59 compounds from US20240262806A1, “INHIBITORS OF NLRP3” (PTC THERAPEUTICS, INC., priority 2021, published 2024).

By IC50 is commonly meant the point on the concentration scale where inhibition reaches its midpoint.

The experiment relates to NLRP3 inflammasome. Kind of experiment: IL-1β Secretion Assay (NLRP3-dependent IL-1β secretion in PMA-differentiated THP-1 cells, nigericin activation, HTRF). Type of experiment: cell-based. The conditions noted are these: Homo sapiens, THP-1, THP-1 cells, 100 ng/mL PMA 24 h, compound 20 h, 2.5 μM Nigericin 3 h; read-out: IC50 IL-1β Inhibition. How it is done: Cells were washed 1× with 100 ul PBS and replaced with fresh RPMI+5% FBS. Compounds were serial diluted in DMSO with 3 fold dilution for a total of 7 concentrations.
Compounds, once produced and prepared according to the present invention, can be assessed in variety of assays to characterize their activities. […] IC50 values of IL1β inhibition were calculated from the plot of percentage of inhibition versus the inhibitor concentration by a logistics fit. TABLE I depict examples of compounds according to generic Formulae I. Data which is <1 nM is listed as *****; data 1-10 nM is listed as ****; data 10-100 nM is listed as ***, data 100-300 nM is listed as **, data >300 nM is listed as *.
Background: Time-resolved FRET reads energy transfer from a long-lived donor to a nearby acceptor.
`Cc1ccc(-c2nnc(N[C@@H]3CCCN(C)C3)c3ccccc23)c(O)c1F` [Compound I-51]: the IC50 was below 1 nM.
The value for `CN1CCC[C@@H](Nc2nnc(-c3ccc(C4=CCCOC4)cc3O)c3ccccc23)C1` [Compound I-52] was 1 to 10 nM; that for `Oc1cc(C(F)(F)F)ccc1-c1nnc(N[C@H]2CNC[C@@H](O)C2)c2ccccc12` [Compound I-53] was 1 to 10 nM.
Turning to `CN1CCC[C@@H](Nc2nnc(-c3ccc(C(F)(F)F)cc3O)c3cnccc23)C1` [Compound I-54], the IC50 was below 1 nM.
`OCCN1CCC[C@@H](Nc2nnc(-c3ccc(C(F)(F)F)cc3O)c3ccncc23)C1` [Compound I-55]: the IC50 is below 1 nM.
The value for `CN1CCC[C@@H](Nc2nnc(-c3ccc(C4=CCOCC4)cc3O)c3ccccc23)C1` [Compound I-56] was 10 to 100 nM.
The value for `CN1CCC[C@@H](Nc2nnc(-c3ccc(C4=CCOC4)cc3O)c3ccccc23)C1` [Compound I-57] was 1 to 10 nM.
As to `CN1CC=C(c2ccc(-c3nnc(N[C@@H]4CCCN(C)C4)c4ccccc34)c(O)c2)C1` [Compound I-58], the IC50 fell in the range of 1 to 10 nM.
Regarding `CN1CCC[C@@H](Nc2nnc(-c3ccc(Cl)cc3O)c3cnccc23)C1` [Compound I-59], the IC50 is below 1 nM.
Regarding `CN1CCC[C@@H](Nc2nnc(-c3ccc(Cl)cc3O)c3ccncc23)C1` [Compound I-60], the 50% inhibitory concentration (IC50) is below 1 nM.
As to `CN1CCC[C@@H](Nc2nnc(-c3ccc(C4CCOC4)cc3O)c3ccccc23)C1` (some centres unmarked) [Compound I-61], the IC50 was 1 to 10 nM.
Consider `OCCN1CCC[C@@H](Nc2nnc(-c3ccc(C(F)(F)F)cc3O)c3c2CCCC3)C1` [Compound I-62, 2-[4-[[(3R)-1-(2-hydroxyethyl)-3-piperidyl]amino]-5,6,7,8-tetrahydrophthalazin-1-yl]-5-(trifluoromethyl)phenol], for which the IC50 is below 1 nM.
As to `CN1C[C@@H](O)C[C@@H](Nc2nnc(-c3ccc(C(F)(F)F)cc3O)c3ccccc23)C1` [Compound I-63], the IC50 is 1 to 10 nM.
Consider `CC(=O)N1CCCC(Nc2nnc(-c3ccc(C(F)(F)F)cc3O)c3ccccc23)C1` (centres unmarked) [Compound I-64], for which the IC50 lay within 10 to 100 nM.
With `CCOC(=O)CN1CCC[C@@H](Nc2nnc(-c3ccc(C(F)(F)F)cc3O)c3ccccc23)C1` [Compound I-65, Ethyl (R)-2-(3-((4-(2-hydroxy-4-(trifluoromethyl)phenyl)phthalazin-1-yl)amino)piperidin-1-yl)acetate], the IC50 is below 1 nM.
As for `CN1CCC[C@@H](Nc2nnc(-c3ccc(Cl)cc3O)c3cccnc23)C1` [Compound I-67], the concentration for half-maximal inhibition (IC50) was below 1 nM.
The value for `Oc1cc(C(F)(F)F)ccc1-c1nnc(NC[C@@H]2CCCN2)c2ccccc12` [Compound I-68] was below 1 nM.
With `Cc1ccc(-c2nnc(N[C@@H]3CCCN(C)C3)c3cnccc23)c(O)c1` [Compound I-71, 5-Methyl-2-[4-[[(3R)-1-methyl-3-piperidyl]amino]pyrido[3,4-d]pyridazin-1-yl]phenol], the IC50 was below 1 nM.
In the case of `CN1CCC[C@@H](Nc2nnc(-c3c(O)cccc3F)c3ccncc23)C1` [Compound I-72], the IC50 lay in the range of 1 to 10 nM.
Consider `COc1cccc(-c2nnc(N[C@@H]3CCCN(C)C3)c3cnccc23)c1O` [Compound I-73], for which the IC50 is below 1 nM.
As for `CN1CCC[C@@H](Nc2nnc(-c3cnc(C#N)cc3O)c3ccccc23)C1` [Compound I-74], the IC50 is 10 to 100 nM.
For `CN1CCC[C@@H](Nc2nnc(-c3ccc(C(F)(F)F)nc3O)c3ccccc23)C1` [Compound I-75], the IC50 was 10 to 100 nM.
Regarding `CN1CCC[C@@H](Nc2nnc(-c3cccc(Cl)c3O)c3ccncc23)C1` [Compound I-76], the IC50 is below 1 nM.
For `CN1CCC[C@@H](Nc2nnc(-c3cccc(C4CC4)c3O)c3ccncc23)C1` [Compound I-77], the IC50 was below 1 nM.
The value for `Cc1ccc(-c2nnc(N[C@@H]3CCCN(C)C3)c3cnccc23)c(O)n1` [Compound I-78] was 10 to 100 nM; that for `CN1CCC[C@@H](Nc2nnc(-c3cnc(C(F)(F)F)cc3O)c3ccccc23)C1` [Compound I-79] was 10 to 100 nM; that for `CN1CCC[C@@H](Nc2nnc(-c3ccc(C#N)nc3O)c3ccccc23)C1` [Compound I-80] was 100 to 300 nM.
Regarding `CN1CCC[C@@H](Nc2nnc(-c3ncc(Cl)cc3O)c3ccccc23)C1` [Compound I-81, (R)-5-Chloro-2-(4-((1-methylpiperidin-3-yl)amino)phthalazin-1-yl)pyridin-3-ol], the IC50 was in the range of 10 to 100 nM.
As to `Cc1cccc(-c2nnc(N[C@@H]3CCCN(C)C3)c3cnccc23)c1O` [Compound I-82], the IC50 is below 1 nM.
As for `Oc1cc(C(F)(F)F)ccc1-c1nnc(N[C@H]2CNC[C@H](O)C2)c2ccccc12` [Compound I-83], the IC50 lay within 10 to 100 nM.
Regarding `CN1C[C@H](O)C[C@@H](Nc2nnc(-c3ccc(C(F)(F)F)cc3O)c3ccccc23)C1` [Compound I-84], the IC50 lay within 10 to 100 nM.
The value for `CN1CCC[C@@H](Nc2nnc(-c3ccc(C(F)(F)F)cc3O)c3occc23)C1` [Compound I-85] was 10 to 100 nM; that for `Cc1ccc(-c2nnc(N[C@@H]3CCCN(C)C3)c3ncccc23)c(O)c1` [Compound I-86] was below 1 nM; that for `CN1CCC[C@H]1CNc1nnc(-c2ccc(C(F)(F)F)cc2O)c2ccccc12` [Compound I-87] was 1 to 10 nM.
`Cc1cc(O)c(-c2nnc(N[C@@H]3CCCN(C)C3)c3cnccc23)cc1F` [Compound I-88]: the IC50 is below 1 nM.
`CN1CCC[C@@H](Nc2nnc(-c3ccc(C4CC4)cc3O)c3ccncc23)C1` [Compound I-89]: the IC50 was below 1 nM.
`CN1CCC[C@@H](Nc2nnc(-c3ncc(C4CC4)cc3O)c3ccccc23)C1` [Compound I-91, (R)-5-Cyclopropyl-2-(4-((1-methylpiperidin-3-yl)amino)phthalazin-1-yl)pyridin-3-ol]: the IC50 is below 1 nM.
Regarding `CN1CCC[C@@H](Nc2nnc(-c3ccc(N4CCCC4)cc3O)c3ccccc23)C1` [Compound I-93], the IC50 fell in the range of 1 to 10 nM.
Consider `CN1CCC[C@@H](Nc2nnc(-c3ccc(-c4ccn(C)c4)cc3O)c3ccccc23)C1` [Compound I-94], for which the IC50 fell in the range of 1 to 10 nM.
The value for `CN1CCCCC(Nc2nnc(-c3ccc(C(F)(F)F)cc3O)c3ccccc23)C1` (centres unmarked) [Compound I-95] was 1 to 10 nM.
For `CN1CCC[C@@H](Cc2nnc(-c3ccc(C(F)(F)F)cc3O)c3ccccc23)C1` [Compound I-96, (S)-2-(4-((1-methylpiperidin-3-yl)methyl)phthalazin-1-yl)-5-(trifluoromethyl)phenol], the IC50 was above 300 nM.
Regarding `CN1CCC[C@H](Cc2nnc(-c3ccc(C(F)(F)F)cc3O)c3ccccc23)C1` [Compound I-97, (R)-2-(4-((1-methylpiperidin-3-yl)methyl)phthalazin-1-yl)-5-(trifluoromethyl)phenol], the IC50 is below 1 nM.
For the compound `O=C(O)CN1CCC[C@@H](Nc2nnc(-c3ccc(C(F)(F)F)cc3O)c3ccccc23)C1` [Compound I-98, (R)-2-(3-((4-(2-Hydroxy-4-(trifluoromethyl)phenyl)phthalazin-1-yl)amino)piperidin-1-yl)acetic acid], the IC50 is below 1 nM.
As for `Cc1ccc(-c2nnc(N[C@@H]3CCCN(C)C3)c3ccncc23)c(O)c1` [Compound I-99], the IC50 was below 1 nM.
Consider `OCCN1CCC[C@@H](Nc2nnc(-c3ccc(C(F)(F)F)cc3O)c3cnccc23)C1` [Compound I-101], for which the IC50 was below 1 nM.
`CN1CCC[C@@H](Nc2nnc(-c3ccc(OC(F)(F)F)cc3O)c3ccncc23)C1` [Compound I-102]: the half-inhibitory concentration (IC50) is below 1 nM.
On to `Cc1cc(C(F)(F)F)cc(O)c1-c1nnc(N[C@@H]2CCCN(C)C2)c2cnccc12` [Compound I-103], for which the IC50 is below 1 nM.
The value for `CN1CCC[C@@H](Nc2nnc(-c3ccc(C(F)(F)F)cc3O)c3c(Cl)ccn23)C1` [Compound I-104, 2-[8-Chloro-4-[[(3R)-1-methyl-3-piperidyl]amino]pyrrolo[1,2-d][1,2,4]triazin-1-yl]-5-(trifluoromethyl)phenol] was 1 to 10 nM.
As to `Cc1cccc(O)c1-c1nnc(N[C@@H]2CCCN(C)C2)c2cnccc12` [Compound I-105], the IC50 fell in the range of 1 to 10 nM.
For the compound `CN1CCC(c2ccc(-c3nnc(N[C@@H]4CCCN(C)C4)c4ccccc34)c(O)c2)C1` (some centres unmarked) [Compound I-107], the IC50 was in the range of 10 to 100 nM.
For `Oc1cc(C(F)(F)F)ccc1-c1nnc(NCCN2CCOCC2)c2ccccc12` [Compound I-108], the concentration for half-maximal inhibition (IC50) fell in the range of 10 to 100 nM.
Regarding `Oc1cc(C(F)(F)F)ccc1-c1nnc(NC2CNC2)c2ccccc12` [Compound I-109], the IC50 was 10 to 100 nM.
Take `Oc1cc(C(F)(F)F)ccc1-c1nnc(NC[C@@H]2CCCN2)c2ccncc12` [Compound I-110]: the IC50 is below 1 nM.
For `Oc1cc(C(F)(F)F)ccc1-c1nnc(NC[C@@H]2CCCN2)c2cnccc12` [Compound I-111], the IC50 is 1 to 10 nM.
In the case of `CN1CCC[C@H]1CNc1nnc(-c2ccc(C(F)(F)F)cc2O)c2ccncc12` [Compound I-112], the IC50 was below 1 nM.
The value for `CCN1CCC[C@H]1CNc1nnc(-c2ccc(C(F)(F)F)cc2O)c2ccncc12` [Compound I-113] was below 1 nM.
On to `CN1CCN(c2nnc(-c3ccc(C(F)(F)F)cc3O)c3cnccc23)CC1` [Compound I-116], for which the IC50 is 100 to 300 nM.
The value for `CN1CCC[C@@H](Nc2nnc(-c3ccc(C(F)(F)F)cc3O)c3c2N(C)CCO3)C1` [Compound I-117] was 10 to 100 nM; that for `CN1CCCC(Cc2nnc(-c3ccc(C(F)(F)F)cc3O)c3cnccc23)C1` (centres unmarked) [Compound I-118, 2-(1-((1-Methylpiperidin-3-yl)methyl)pyrido[3,4-d]pyridazin-4-yl)-5-(trifluoromethyl)phenol] was 1 to 10 nM.
